Results published in PubChem BioAssay (NCI).
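Values below derive from 48-hour exposures of cells grown in 96-well plates, with endpoints linearly interpolated between the two concentrations bracketing the appropriate inhibition level. Abbreviation: GI50, concentration required for 50% inhibition of growth. TGI: concentration producing complete growth inhibition.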

Legend:
Assay in all cases: growth of human tumour cells (NCI), 48 h
BT-549 breast = tested on: BT-549 breast
DU-145 prostate = tested on: DU-145 prostate
HCT-116 colon = tested on: HCT-116 colon
NCI-H460 lung = tested on: NCI-H460 lung
SF-295 CNS = tested on: SF-295 CNS
SF-539 CNS = tested on: SF-539 CNS
TK-10 renal = tested on: TK-10 renal
U251 CNS = tested on: U251 CNS
UACC-257 melanoma = tested on: UACC-257 melanoma
UACC-62 melanoma = tested on: UACC-62 melanoma

SMILES	GI50 (BT-549 breast)	TGI (BT-549 breast)	GI50 (DU-145 prostate)	TGI (DU-145 prostate)	GI50 (HCT-116 colon)	TGI (HCT-116 colon)	GI50 (NCI-H460 lung)	TGI (NCI-H460 lung)	GI50 (SF-295 CNS)	TGI (SF-295 CNS)	GI50 (SF-539 CNS)	TGI (SF-539 CNS)	GI50 (TK-10 renal)	TGI (TK-10 renal)	GI50 (U251 CNS)	TGI (U251 CNS)	GI50 (UACC-257 melanoma)	TGI (UACC-257 melanoma)	GI50 (UACC-62 melanoma)	TGI (UACC-62 melanoma)
CCCN(CCC)c1ccc(CO)c(C)c1	47.6 µM	> 100 µM	> 100 µM	> 100 µM	26.9 µM	> 100 µM	> 100 µM	> 100 µM	> 100 µM	> 100 µM	> 100 µM	> 100 µM	13.8 µM	61 µM	74 µM	> 100 µM	11.6 µM	67.3 µM	22.8 µM	> 100 µM
CN1C(=O)CNC(=O)[C@H](NC(=O)c2nc3ccccc3cc2O)CSSC[C@H]1C(=O)NCCc1nc2ccccc2cc1O	14.3 µM	51.7 µM	5.19 µM	23.2 µM	2.05 µM	57.6 µM	1.15 µM	> 35.2 µM	14.3 µM	> 100 µM	15.2 µM	39.1 µM	20.5 µM	47.3 µM	16.5 µM	43 µM	17.1 µM	72.9 µM	7.64 µM	38.6 µM
CC(=O)/C=C/C1=C(c2cc3ccccc3s2)c2ccccc2CC1	33.6 µM	> 100 µM	52.8 µM	> 100 µM	20.7 µM	65.1 µM	–	–	37 µM	> 100 µM	27.2 µM	64.7 µM	61.1 µM	> 100 µM	39.6 µM	> 100 µM	24.4 µM	59.7 µM	16.7 µM	34.2 µM
O=C(Nc1ccc(Br)cc1)Nc1n[nH]c2ccccc12	> 100 µM	> 100 µM	> 60.2 µM	> 100 µM	33.8 µM	> 100 µM	11.7 µM	> 100 µM	> 100 µM	> 100 µM	> 70.9 µM	> 100 µM	–	> 26.7 µM	> 91.2 µM	> 100 µM	> 100 µM	> 100 µM	> 100 µM	> 100 µM
O=Cc1ccc(-c2ccc(-c3ccc(C=O)s3)o2)s1	–	> 100 µM	–	> 100 µM	–	> 100 µM	–	> 100 µM	–	> 100 µM	–	> 100 µM	–	7.33 µM	–	> 50.8 µM	–	16.2 µM	–	0.441 µM
O=C(Nc1cc(C(F)(F)F)ccc1F)Nc1n[nH]c2ccccc12	> 100 µM	> 100 µM	> 100 µM	> 100 µM	> 100 µM	> 100 µM	> 100 µM	> 100 µM	> 100 µM	> 100 µM	> 100 µM	> 100 µM	> 100 µM	> 100 µM	> 100 µM	> 100 µM	> 100 µM	> 100 µM	> 100 µM	> 100 µM
COc1cc(OC)c2c(=O)c(O)c(-c3ccc(OC)c(OC)c3)oc2c1	–	> 100 µM	–	> 100 µM	–	> 100 µM	–	> 100 µM	–	38.1 µM	–	> 100 µM	–	> 100 µM	–	> 100 µM	–	> 100 µM	–	> 31.6 µM
CC(ONC(=O)c1cc(C(F)(F)F)cc(C(F)(F)F)c1)C(=O)Nc1ccc(Cl)cc1 (configuration not stated)	3.71 µM	16.7 µM	11.5 µM	> 100 µM	4.97 µM	16.4 µM	3.5 µM	15 µM	3.66 µM	30.9 µM	4.82 µM	19 µM	5.42 µM	> 75.1 µM	4.61 µM	> 50.5 µM	3.83 µM	20.1 µM	3.98 µM	14.1 µM
COc1ccc(C(O)CNC(=O)c2ccccc2)cc1 (configuration not stated)	–	> 100 µM	–	> 100 µM	–	> 100 µM	–	> 100 µM	–	> 100 µM	–	> 100 µM	–	> 100 µM	–	> 100 µM	–	> 100 µM	–	> 100 µM
C#C[C@]1(O)CC[C@H]2[C@@H]3CC=C4c5sc(N=C(N)N)nc5CC[C@]4(C)[C@H]3CC[C@@]21C	1.08 µM	2.49 µM	1.19 µM	2.67 µM	0.989 µM	2.29 µM	1.05 µM	2.5 µM	0.188 µM	0.452 µM	0.233 µM	1.12 µM	1.85 µM	3.44 µM	0.388 µM	1.85 µM	0.369 µM	1.4 µM	0.248 µM	0.657 µM
